PubChem BioAssay (NCI)
Values joined by “and” are separate entries in the source; they are usually repeats but may differ in a detail not shown here. Equal values may be shown once.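 These data come from cells grown in 96-well plates and exposed to compound for 48 hours at five concentrations. The concentration for full growth arrest is given as TGI.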

What follows are compounds tested on A549 NSCLC (assay: growth of human tumour cells (NCI), 48 h).
`Cc1ccc2c(c1CCCC(C)(C)O)C(=O)C(=O)C(C(C)C)=C2O` was tested, and the TGI was over 100 µM. `CC(=O)c1sc2c(c1OC(=O)c1cccs1)c(=O)n(-c1ccccc1)c(=S)n2-c1ccccc1` was tested, and the TGI was over 100 µM. For `C[C@]12CCC(=O)C=C1CC[C@@H]1C2CC[C@]2(C)c3nn(-c4ccc(F)cc4)nc3CC12` (some centres undefined), the TGI was over 100 µM. In the case of `O=C1C(Cl)C(c2ccccc2)N1n1cnc2ccccc2c1=O` (centres undefined), the TGI is reported as over 100 µM. `CN(C)C(=O)OCOC(=O)N(C)C` showed a TGI of over 100 µM. In the case of `COC(=O)c1ccc(/C=C2\N=C(C)OC2=O)cc1`, the TGI is reported as over 100 µM. For `O=C1NC(=O)C(CCO)(c2ccccc2)C(=O)N1`, the TGI was over 100 µM. `COc1ccc2c(c1)CC[C@@H]1[C@@H]2CC[C@]2(C)C(=O)/C(=C/c3ccc(OC)c(OC)c3)C[C@@H]12` showed a TGI of over 100 µM. In the case of `Cn1ccc(C(=O)NCCOCCNC(=O)c2ccn(C)c(=O)c2O)c(O)c1=O`, the TGI is reported as over 100 µM. `Cc1cn(C2CC(ON3C(=O)c4ccccc4C3=O)C(CO)O2)c(=O)[nH]c1=O` (centres undefined) was tested, and the TGI was over 10 µM. `N#CSc1nc[nH]c1C(N)=O` gave a TGI of over 100 µM. For `C=CCn1c(=O)n(CC=C)c(=O)n(CC=C)c1=O`, the TGI was over 100 µM. `COc1ccnc2c1C(=O)c1nc3ccccc3c3ccnc-2c13` was tested, and the TGI was 2.02 µM. `CCCCN1C=CN2c3nc4cc(C)c(C)cc4n3C(C(=O)OC)=C(C(=O)OC)C12` (centres undefined) gave a TGI of over 100 µM. For `COC(=O)C(=C/c1ccc(OC)cc1)/C(C(=O)O)=C(/C)c1ccccc1`, the TGI was over 100 µM. `C=C1C(=O)O[C@H]2[C@H]1[C@@H](OC(=O)C=C(C)C)CC1=C[C@@H](C[C@@]3(C)O[C@@H]23)OC1=O` was tested, and the TGI was 63 µM and 39.7 µM. `CCOC(=O)C(N=Nc1ccc(S(N)(=O)=O)cc1)C(C)=O` (centres undefined) was tested, and the TGI was over 100 µM. In the case of `Cc1ccc(C2CC(c3ccco3)=NN2c2ccccc2)o1` (centres undefined), the TGI is reported as over 100 µM. `C/C(=C1/CCCC2(N=NCC2c2ccccc2)C1=O)c1ccccc1` (centres undefined) gave a TGI of 92.6 µM. Compound `CCN1CCN(c2ccc(Nc3ccnc4ccc5nn(C)nc5c34)cc2)CC1` has a TGI of 27.3 µM. With `CC1=CC(C2/C(=N/O)C=C(C)CC2(C)C)C(O)C(C)(C)C1` (centres undefined) the TGI was 29.6 µM. Work on `OCC1OC(n2cnc3c2NC=NC[C@H]3O)C(O)C1O` (some centres undefined) yielded a TGI of over 450 µM. With `c1cc(-c2ncc(-c3ccc4c(c3)CCCO4)o2)ccn1` the TGI was over 100 µM. For `CC(=O)OC1CC2c3cccc4c3C(CC2N(C)C1=O)CN4C(=O)c1ccccc1` (centres undefined), the TGI was 37.2 µM. `CNC(=S)N/N=C(C)\C(=N/NC(=S)NC)c1ccccc1` was tested, and the TGI was over 100 µM. `O=[N+]([O-])c1ccc(-n2nnc(C3=NCCCN3)c2-c2ccc(Cl)cc2)cc1` gave a TGI of over 100 µM. Work on `COc1cc2c(cc1OC)C(O)[C@H](Br)C(C)(C)O2` (some centres undefined) yielded a TGI of over 100 µM. Compound `CCCCCC(C[N+]1(C)CCOCC1)C(=O)/C=C/c1ccccc1` (centres undefined) has a TGI of 62 µM. For `COc1ccc(C[N+]23C(CC[C@H]2c2ccccc2)CC[C@H]3c2ccccc2)cc1` (some centres undefined), the TGI was over 100 µM. `CCOC(=O)C1(C(=O)OCC)CN(CC)CN(c2ccccc2)C1` was tested, and the TGI was 49.3 µM. With `CC(=O)OCC1OC(Nc2ncc(-c3ccc(C)cc3)s2)C(OC(C)=O)C(OC(C)=O)C1OC(C)=O` (centres undefined) the TGI was over 100 µM.

The compounds below were run on HOP-92 NSCLC (assay: growth of human tumour cells (NCI), 48 h).
`Cc1ccc2c(c1CCCC(C)(C)O)C(=O)C(=O)C(C(C)C)=C2O` showed a TGI of over 100 µM. With `CC(=O)c1sc2c(c1OC(=O)c1cccs1)c(=O)n(-c1ccccc1)c(=S)n2-c1ccccc1` the TGI was 22.1 µM. Work on `C[C@]12CCC(=O)C=C1CC[C@@H]1C2CC[C@]2(C)c3nn(-c4ccc(F)cc4)nc3CC12` (some centres undefined) yielded a TGI of over 100 µM. Compound `CN(C)C(=O)OCOC(=O)N(C)C` has a TGI of over 100 µM. In the case of `COC(=O)c1ccc(/C=C2\N=C(C)OC2=O)cc1`, the TGI is reported as over 100 µM. Compound `O=C1NC(=O)C(CCO)(c2ccccc2)C(=O)N1` has a TGI of over 100 µM. `COc1ccc2c(c1)CC[C@@H]1[C@@H]2CC[C@]2(C)C(=O)/C(=C/c3ccc(OC)c(OC)c3)C[C@@H]12` showed a TGI of over 100 µM. With `Cn1ccc(C(=O)NCCOCCNC(=O)c2ccn(C)c(=O)c2O)c(O)c1=O` the TGI was over 100 µM. For `Cc1cn(C2CC(ON3C(=O)c4ccccc4C3=O)C(CO)O2)c(=O)[nH]c1=O` (centres undefined), the TGI was over 10 µM. In the case of `N#CSc1nc[nH]c1C(N)=O`, the TGI is reported as over 100 µM. Compound `C=CCn1c(=O)n(CC=C)c(=O)n(CC=C)c1=O` has a TGI of over 100 µM. In the case of `CCCCN1C=CN2c3nc4cc(C)c(C)cc4n3C(C(=O)OC)=C(C(=O)OC)C12` (centres undefined), the TGI is reported as over 100 µM. `COC(=O)C(=C/c1ccc(OC)cc1)/C(C(=O)O)=C(/C)c1ccccc1` gave a TGI of over 100 µM. `C=C1C(=O)O[C@H]2[C@H]1[C@@H](OC(=O)C=C(C)C)CC1=C[C@@H](C[C@@]3(C)O[C@@H]23)OC1=O` showed a TGI of 4.15 µM. For `CCOC(=O)C(N=Nc1ccc(S(N)(=O)=O)cc1)C(C)=O` (centres undefined), the TGI was over 100 µM. For `C/C(=C1/CCCC2(N=NCC2c2ccccc2)C1=O)c1ccccc1` (centres undefined), the TGI was over 100 µM. `CCN1CCN(c2ccc(Nc3ccnc4ccc5nn(C)nc5c34)cc2)CC1` was tested, and the TGI was 26.5 µM. `CC1=CC(C2/C(=N/O)C=C(C)CC2(C)C)C(O)C(C)(C)C1` (centres undefined) showed a TGI of 27.5 µM. Compound `OCC1OC(n2cnc3c2NC=NC[C@H]3O)C(O)C1O` (some centres undefined) has a TGI of over 414 µM. `c1cc(-c2ncc(-c3ccc4c(c3)CCCO4)o2)ccn1` showed a TGI of 92.5 µM. For `CC(=O)OC1CC2c3cccc4c3C(CC2N(C)C1=O)CN4C(=O)c1ccccc1` (centres undefined), the TGI was 34.8 µM. `O=[N+]([O-])c1ccc(-n2nnc(C3=NCCCN3)c2-c2ccc(Cl)cc2)cc1` was tested, and the TGI was over 100 µM. `COc1cc2c(cc1OC)C(O)[C@H](Br)C(C)(C)O2` (some centres undefined) gave a TGI of over 100 µM. For `CCCCCC(C[N+]1(C)CCOCC1)C(=O)/C=C/c1ccccc1` (centres undefined), the TGI was 35.3 µM. In the case of `COc1ccc(C[N+]23C(CC[C@H]2c2ccccc2)CC[C@H]3c2ccccc2)cc1` (some centres undefined), the TGI is reported as 39.5 µM. `CCOC(=O)C1(C(=O)OCC)CN(CC)CN(c2ccccc2)C1` was tested, and the TGI was 33.3 µM. `CC(=O)OCC1OC(Nc2ncc(-c3ccc(C)cc3)s2)C(OC(C)=O)C(OC(C)=O)C1OC(C)=O` (centres undefined) was tested, and the TGI was over 100 µM.

Each compound was assayed on HS 578T breast (assay: growth of human tumour cells (NCI), 48 h).
In the case of `CC(=O)c1sc2c(c1OC(=O)c1cccs1)c(=O)n(-c1ccccc1)c(=S)n2-c1ccccc1`, the TGI is reported as 22.3 µM. `C[C@]12CCC(=O)C=C1CC[C@@H]1C2CC[C@]2(C)c3nn(-c4ccc(F)cc4)nc3CC12` (some centres undefined) showed a TGI of over 100 µM. Work on `Cn1ccc(C(=O)NCCOCCNC(=O)c2ccn(C)c(=O)c2O)c(O)c1=O` yielded a TGI of over 100 µM. `Cc1cn(C2CC(ON3C(=O)c4ccccc4C3=O)C(CO)O2)c(=O)[nH]c1=O` (centres undefined) showed a TGI of over 10 µM. For `N#CSc1nc[nH]c1C(N)=O`, the TGI was over 100 µM. `COc1ccnc2c1C(=O)c1nc3ccccc3c3ccnc-2c13` gave a TGI of 6.44 µM. Work on `CC1=CC(C2/C(=N/O)C=C(C)CC2(C)C)C(O)C(C)(C)C1` (centres undefined) yielded a TGI of over 100 µM. Compound `c1cc(-c2ncc(-c3ccc4c(c3)CCCO4)o2)ccn1` has a TGI of over 100 µM. `CNC(=S)N/N=C(C)\C(=N/NC(=S)NC)c1ccccc1` was tested, and the TGI was 72.5 µM. `COc1ccc(C[N+]23C(CC[C@H]2c2ccccc2)CC[C@H]3c2ccccc2)cc1` (some centres undefined) was tested, and the TGI was over 100 µM. With `CCOC(=O)C1(C(=O)OCC)CN(CC)CN(c2ccccc2)C1` the TGI was over 100 µM.

What follows are compounds tested on KM12 colon (assay: growth of human tumour cells (NCI), 48 h).
For `Cc1ccc2c(c1CCCC(C)(C)O)C(=O)C(=O)C(C(C)C)=C2O`, the TGI was over 100 µM. For `CC(=O)c1sc2c(c1OC(=O)c1cccs1)c(=O)n(-c1ccccc1)c(=S)n2-c1ccccc1`, the TGI was 59 µM. With `C[C@]12CCC(=O)C=C1CC[C@@H]1C2CC[C@]2(C)c3nn(-c4ccc(F)cc4)nc3CC12` (some centres undefined) the TGI was over 100 µM. For `O=C1C(Cl)C(c2ccccc2)N1n1cnc2ccccc2c1=O` (centres undefined), the TGI was over 100 µM. For `CN(C)C(=O)OCOC(=O)N(C)C`, the TGI was over 100 µM. With `COC(=O)c1ccc(/C=C2\N=C(C)OC2=O)cc1` the TGI was over 100 µM. With `O=C1NC(=O)C(CCO)(c2ccccc2)C(=O)N1` the TGI was over 100 µM. `COc1ccc2c(c1)CC[C@@H]1[C@@H]2CC[C@]2(C)C(=O)/C(=C/c3ccc(OC)c(OC)c3)C[C@@H]12` was tested, and the TGI was over 100 µM. Compound `Cn1ccc(C(=O)NCCOCCNC(=O)c2ccn(C)c(=O)c2O)c(O)c1=O` has a TGI of over 100 µM. `Cc1cn(C2CC(ON3C(=O)c4ccccc4C3=O)C(CO)O2)c(=O)[nH]c1=O` (centres undefined) gave a TGI of over 10 µM.
